Reference: patent US8945929B2, “Marker for determination of sensitivity to anti-cancer agent” (Keio University, priority 2008, dated 2015)
Where a name gives a salt, the structure may show the parent alone.

How the values were obtained:
[1] = tested on: cultured human colorectal cancer cells, HT-29; experiment: Tumor size in nude mice with subcutaneously transplanted HT-29 cells; format: in vivo, nude mice (BALB/cAJcl-nu/nu); conditions: conclusion from tumor size, 7 days after the administration
Protocol: (§1) Six-week-old, male nude mice (BALB/cAJcl-nu/nu) purchased from CLEA Japan, Inc. were used and allowed to ingest a general feed and drink water freely in a thermostatic chamber. A protocol following the animal experiment guideline in School of Medicine, Keio University was applied and then approved. Then, this examination was carried out humanely.
(§2) CAMPTO™ as a preparation of CPT-11 and a solvent for dissolving Campto (hereinafter, referred to as “solvent”) were obtained from Yakult Honsha, Co., Ltd.
After the transplantation, a tumor size was measured by using the following formula: (longer tumor diameter)×(shorter tumor diameter)^2/2. When the tumor size reached 300 to 400 mm^3, the mice were randomly assigned to a CPT-11 administration group and a solvent administration group (a CPT-11 non-administration group). The day when the mice were assigned to two groups was defined as day 0. […] The tumor size was measured on day 0, and 12 hours, 24 hours, 72 hours, and 7 days after the administration. […]
After the transplantation, a tumor size was measured by using the following formula: (longer tumor diameter)×(shorter tumor diameter)^2/2. […] The tumor size was measured on day 0, and 12 hours, 24 hours, 72 hours, and 7 days after the administration. […]

[2] = tested on: cultured human colorectal cancer cells, HCT-116; experiment: Tumor size in nude mice with subcutaneously transplanted HCT-116 cells; format: in vivo, nude mice (BALB/cAJcl-nu/nu); conditions: 7 days after the administration
Protocol: as §1, §2
(§3) After the transplantation, a tumor size was measured by using the following formula: (longer tumor diameter)×(shorter tumor diameter)^2/2. When the tumor size reached 300 to 400 mm^3, the mice were randomly assigned to a CPT-11 administration group and a solvent administration group (a CPT-11 non-administration group). The day when the mice were assigned to two groups was defined as day 0. CAMPTO™ as a preparation of CPT-11 in an amount of 4.5 mL/kg (90 mg/kg as CPT-11 amount) and the solvent for dissolving CAMPTO™ (D-sorbitol, lactic acid, pH adjuster) were administered slowly to the CPT-11 administration group and a CPT-11 non-administration group, respectively, from the tail vein. The tumor size was measured on day 0, and 12 hours, 24 hours, 72 hours, and 7 days after the administration. The blood was collected after the dissection. After the centrifugation of the collected blood at 10,000 rpm for 10 minutes, a serum fraction was frozen with liquid nitrogen and stored at −80° C. until the serum fraction was used in preparation of a sample for metabolome analysis. As a control group, a cancer cell-non-transplanted group was produced and the same treatment was carried out.
After the transplantation, a tumor size was measured by using the following formula: (longer tumor diameter)×(shorter tumor diameter)^2/2. When the tumor size reached 300 to 400 mm^3, the mice were randomly assigned to a CPT-11 administration group and a solvent administration group. The tumor size was measured on day 0, and 12 hours, 24 hours, 72 hours, and 7 days after the administration. […]

[3] = tested on: cultured human colorectal cancer cells, HT-29; experiment: Serum metabolome (CE-TOFMS) of HT-29 cancer-bearing mice after CPT-11; format: in vivo, nude mice (BALB/cAJcl-nu/nu); conditions: HT-29 transplanted, 90 mg/kg as CPT-11
Protocol: as §3, with “After the centrifugation of the collected blood at 10,000 rpm for 10 minutes, a serum fraction was frozen with liquid nitrogen and stored at −80° C. until the serum fraction was used in preparation of a sample for metabolome analysis. As a control group, a cancer cell-non-transplanted group was produced and the same treatment was carried out.” left out
(§4) The comprehensive measurement of the metabolites in a serum was carried out by using a capillary electrophoresis time-of-flight mass spectrometry (CE-TOFMS) system manufactured by Agilent Technologies, Inc. In this examination, a voltage was applied such that an output of the capillary was a cathode, and cationic metabolites were comprehensively measured. […]

[4] = tested on: cultured human colorectal cancer cells, HCT-116; experiment: Serum metabolome (CE-TOFMS) of HCT-116 cancer-bearing mice after CPT-11; format: in vivo, nude mice (BALB/cAJcl-nu/nu); conditions: HCT-116 transplanted, 90 mg/kg as CPT-11
Protocol: as §3, with “After the centrifugation of the collected blood at 10,000 rpm for 10 minutes, a serum fraction was frozen with liquid nitrogen and stored at −80° C. until the serum fraction was used in preparation of a sample for metabolome analysis. As a control group, a cancer cell-non-transplanted group was produced and the same treatment was carried out.” left out
as §4

[5] = background statement; cited from earlier work
[6] = tested on: cultured human colorectal cancer cells, HCT-116; conditions: HCT-116, as obtained from Yakult Honsha; cited from earlier work
[7] = tested on: cultured human colorectal cancer cells, HT-29; conditions: HT-29, as obtained from Yakult Honsha; cited from earlier work
[8] = 12 hours after the administration
[9] = 24 hours after the administration

CCc1c2c(nc3ccc(OC(=O)N4CCC(N5CCCCC5)CC4)cc13)-c1cc3c(c(=O)n1C2)COC(=O)[C@]3(O)CC [CPT-11, Irinotecan hydrochloride]
sensitivity of HT-29 to CPT-11 compared to HCT-116 [1]: low sensitivity
tumor size, CPT-11 group with HCT-116 vs CPT-11 group with HT-29 ([2]; 90 mg/kg as CPT-11, tail vein): significant difference (p=0.04979)
tumor size, CPT-11 administration group vs solvent administration group ([2]; HCT-116 transplanted, 90 mg/kg as CPT-11, tail vein): significant difference (p=0.01319)
sensitivity of HCT-116 to CPT-11 compared to HT-29 ([2]; conclusion from tumor size): high sensitivity
serum expression level of peak at m/z 104.070 (N,N-dimethyl glycine), CPT-11 group vs solvent group [3, 8]: the same level
serum expression level of peak at m/z 166.086 (L-phenylalanine), CPT-11 group vs solvent group [3, 9]: the same level
serum expression level of peak at m/z 104.070 (N,N-dimethyl glycine), CPT-11 administration group [4, 8]: decreased to the same level as in the control group
serum expression level of peak at m/z 166.086 (L-phenylalanine), CPT-11 administration group [4, 9]: decreased to the same level as in the control group

CCc1c2c(nc3ccc(O[C@@H]4O[C@H](C(=O)O)[C@@H](O)[C@H](O)[C@H]4O)cc13)-c1cc3c(c(=O)n1C2)COC(=O)[C@]3(O)CC [SN-38G]
cytotoxicity [5]: no cytotoxicity

CCc1c2c(nc3ccc(O)cc13)-c1cc3c(c(=O)n1C2)COC(=O)[C@]3(O)CC [SN-38, 7-ethyl-10-hydroxycamptothecin]
sensitivity of cells to SN-38 [6]: high sensitivity
sensitivity of cells to SN-38 [7]: low sensitivity
